Reference: ChEMBL document CHEMBL1201862, “PubChem BioAssay data set” (2004)
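96-well plates; 48 h exposure; 5 concentrations. Endpoints by linear interpolation between flanking doses. Not reached: highest tested concentration assigned. Here, GI50 denotes the concentration required for 50% inhibition of growth.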 Activity calls are given as the source filed them. Cut-off read from the data, not from the text of the source: active = GI50 up to about 1.1 µM and inactive = higher.

Columns and labels:
Experiment in all cases: NCI anticancer screen, dose series, 48 h
[1] = test system: 786-0
[2] = test system: BT-549
[3] = test system: MDA-MB-231
[4] = test system: MDA-MB-435
[5] = test system: MDA-N
[6] = test system: PC-3
[7] = test system: T47D
[8] = test system: HOP-18
[9] = test system: RXF 631

Row | SMILES | GI50 [1] | GI50 [2] | GI50 [3] | GI50 [4] | GI50 [5] | GI50 [6] | GI50 [7] | GI50 [8] | GI50 [9]
1 | N#CC1=C(N)N(c2ccccc2)C(c2ccco2)C1(C#N)C#N (stereo not drawn) | 17.5 µM (inactive) | 18.8 µM (inactive) | 15.3 µM (inactive) | 28.4 µM (inactive) | 27.8 µM (inactive) | 27.4 µM (inactive) | 15.2 µM (inactive) |  | 
2 | CC(C)(C)OC(=O)NCC(=O)NC1c2ccsc2/C(=N/O)[C@H]1O (stereo partly drawn) |  | > 100 µM (inactive) | > 100 µM (inactive) | > 100 µM (inactive) | > 100 µM (inactive) | > 100 µM (inactive) | > 100 µM (inactive) |  | 
3 | N#CCCOCN(CO)c1nc(N(CO)COCCC#N)nc(N(CO)COCCC#N)n1 |  |  |  |  |  |  |  | 24.3 µM (inactive) | 
4 | Cc1cc2c(C)nn(Cc3ccc(Cl)cc3)c2c(C#N)c1C | 63.2 µM (inactive) |  |  |  |  |  |  | > 100 µM (inactive) | > 100 µM (inactive)
5 | C=C(c1ccccc1)c1cc2c(=O)[nH]ccc2n1C | 27.5 µM (inactive) |  |  |  |  |  |  |  | 
6 | COCCOCOc1ccc(OCc2ccccc2)cc1 |  |  |  |  |  |  |  | > 100 µM (inactive) | 
7 | COc1cc(Cc2ccc3c(c2C#N)N(C)c2ccccc2S3)cc(OC)c1OC |  |  |  |  |  |  |  | 72.4 µM (inactive) | 
8 | CSc1nc(N)c2c(-c3ccccc3)c3c(nc2n1)CCCC3 |  | > 100 µM (inactive) | > 100 µM (inactive) | > 100 µM (inactive) | > 100 µM (inactive) | > 100 µM (inactive) | > 100 µM (inactive) |  | 
9 | O=C(NO)c1coc2ccccc2c1=O |  |  |  |  |  |  |  |  | > 100 µM (inactive)
10 | COc1ccc(-c2nnc(-c3ccncc3)o2)cc1 | > 100 µM (inactive) | > 100 µM (inactive) | > 100 µM (inactive) | > 100 µM (inactive) | > 100 µM (inactive) | > 100 µM (inactive) | > 100 µM (inactive) |  | 
11 | COc1cc2c(cc1Oc1ccc(OC)c3c1CC1c4c(cc(OC)c(OC)c4-3)CCN1C)CC1c3c(cc(OC)c(OC)c3-2)CCN1C (stereo not drawn) |  |  |  |  |  |  |  | 14 µM (inactive) | 
12 | CS(=O)(=O)C(C#N)c1nc2ccccc2nc1Cl (stereo not drawn) |  | > 100 µM (inactive) | > 100 µM (inactive) | > 100 µM (inactive) | > 100 µM (inactive) | > 100 µM (inactive) | > 100 µM (inactive) |  | 
13 | CC(=C/c1ccccc1)/C=C1/NC(=S)N(/C=C2\C(=O)Oc3ccccc3C2=O)C1=O |  |  | 45.9 µM (inactive) | 45.1 µM (inactive) | 96.6 µM (inactive) | 96.6 µM (inactive) | 1.76 µM (inactive) |  | 
14 | CC(=O)ON1C(=O)c2cccc3cccc(c23)C1=O |  | 20.9 µM (inactive) | 29 µM (inactive) | 14.7 µM (inactive) | 18.3 µM (inactive) | 25.8 µM (inactive) | 20.8 µM (inactive) |  | 
15 | COc1cc([N+](=O)[O-])ccc1NC(=O)c1cccc([N+](=O)[O-])c1O |  |  |  |  |  |  |  | 5.32 µM (inactive) | 30.8 µM (inactive)
16 | COc1ccc(C2ON(c3ccccn3)CC=C2C)cc1 (stereo not drawn) | > 100 µM (inactive) |  |  |  |  |  |  | > 100 µM (inactive) | > 100 µM (inactive)
17 | CN(C)c1nc(N(C)C)nc(N(C)CN(C)c2ccccc2)n1 |  |  |  |  |  |  |  | > 100 µM (inactive) | 
18 | Cc1cc(C)n2c(-c3ccccc3)c(C)cc2n1 | 78 µM (inactive) |  |  |  |  |  |  | > 100 µM (inactive) | 43.6 µM (inactive)
19 | Cc1cc(NS(=O)(=O)c2ccc(NC(=O)c3cccc4c(Nc5ccc(S(N)(=O)=O)cc5)c5ccccc5nc34)cc2)no1 |  |  |  |  |  |  |  |  | > 100 µM (inactive)
20 | Cc1ccccc1-c1nc2c(C(=O)NCCN(C)C)cccc2[nH]1 |  |  |  |  |  |  |  | 8.02 µM (inactive) | 
21 | NNc1nnc(CCCCCCCCc2nnc(NN)n2N)n1N | 33.1 µM (inactive) | 26.1 µM (inactive) | 41.5 µM (inactive) | > 100 µM (inactive) | > 100 µM (inactive) | > 100 µM (inactive) |  |  | 
22 | Cc1nn(-c2ccccc2)c(-c2ccccc2[N+](=O)[O-])c1CC#N | > 100 µM (inactive) |  |  |  |  |  |  |  | > 100 µM (inactive)
23 | CCN(/N=C1\CC2C=CCN(C2)C(=O)Cc2c1[nH]c1ccccc21)S(=O)(=O)c1ccc(C)cc1 (stereo not drawn) | > 100 µM (inactive) |  |  |  |  |  |  |  | 96.4 µM (inactive)
24 | CCOC(=O)C1=C(Nc2cccc(OC)c2)OCC1=O | > 100 µM (inactive) |  | > 100 µM (inactive) | > 100 µM (inactive) |  | > 100 µM (inactive) | > 100 µM (inactive) |  | 
25 | O=C1OC(c2ccc(O)c(F)c2)(c2ccc(O)c(F)c2)c2cccc3cccc1c23 |  |  | > 25 µM (inactive) | > 25 µM (inactive) | 15.6 µM (inactive) | 3.09 µM (inactive) |  |  | 
26 | Cc1ccc(NC(=O)c2cccc([N+](=O)[O-])c2O)c(C)c1 |  |  |  |  |  |  |  | 1.02 µM (active) | 
27 | NC(=O)Oc1ccccc1 [CARBAMIC ACID PHENYL ESTER] |  |  | > 100 µM (inactive) | > 100 µM (inactive) | > 100 µM (inactive) | > 100 µM (inactive) | > 100 µM (inactive) |  | 
